Source: patent publication US9572788B2, “Cell permeable inhibitors of anaphase promoting complex” (President and Fellows of Harvard College, priority 2014, dated 2017)
Read-outs that look alike come from different tables or passages of the source.

What was measured:
HeLa H2B-GFP cells = experiment: Live cell imaging of mitotic duration and cell fate; format: cell-based, human; conditions: for Response of arrested cells to roscovitine: 100 μM roscovitine at 12 h after release; for Mitotic phenotype: synchronized HeLa H2B-GFP
Description: Detailed siRNA transfection and drug treatment schemes are described in supplemental experimental procedures. HeLa H2B-GFP cells were plated in DMEM with 10% FBS at 20% confluence. […] Live cell imaging was performed at 12 minute intervals on a Nikon TE2000E PFS inverted microscope fitted with an incubation chamber maintained at 37° C. and supplied with 5% CO2. Cell division was tracked by manual inspection of movies, and mitotic duration was measured as the time between the first frame of chromosome condensation and the frame of chromosome segregation (anaphase), decondensation (mitotic exit without anaphase) or cell death (chromosomes shrinking to a small bright dot).
The imaging plate was mounted onto a motorized stage (Prior ProScan II) on a Nikon TE2000E PFS inverted microscope fitted with an incubation chamber maintained at 37° C. and supplied with 5% CO2. A 20× Plan Apo 0.75 NA or 40× Plan Fluor 0.75 NA objective lens was used as indicated and images were collected with 2×2 binning. […] TIFF files of each image were exported from Elements and used to build stacks and Quicktime movies with Metamorph imaging software (Molecular Devices). For manual analysis, mitotic duration is counted as the time between the first frame of chromosome condensation and the frame of chromosome segregation (anaphase) or decondensation (mitotic exit in the presence of nocodazole) or cell death (chromosomes shrinking to a small bright dot).
HeLa H2B-GFP cells were plated in a 24-well plate in DMEM 10% FBS at 20% confluence one day prior to experiment and synchronized by double thymidine block as described above. […] Live cell imaging was set up as described above.
HeLa H2B-GFP cells were plated in a 24-well plate in DMEM+10% FBS at 20% confluence one day prior to the experiment and synchronized by double thymidine block as described above. The cells were released from the first thymidine block into 200 μl OptiMem without FBS. Transfection was performed immediately after the first thymidine release. […] The two mixtures were left at room temperature for 5 min before being mixed together and incubated for additional 20 min and then added to the cells to a final volume of 250 μl. 4 h after transfection, 250 μl of DMEM+20% FBS were added to cells.
HeLa H2B-GFP cells were plated in glass-bottom 24-well plates at 20% confluence one day prior to the experiment and synchronized by double thymidine block as described above. […] Cells were treated with 100 nM Hesperadin or DMSO 8 h after release from the second thymidine block and live cell imaging was set up as described above.
HeLa H2B-GFP cells were plated in a 24-well plate in DMEM+10% FBS at 20% confluence one day prior to experiment and synchronized by double thymidine block as synchronized above. […] Live cell imaging was set up as described above.
HeLa H2B-GFP cells were plated in a 24-well plate in DMEM+10% FBS at 20% confluence one day prior to experiment and synchronized by double thymidine block as described above. […] Untreated cells were used as the control. Live cell imaging was set up as described above. […] Alternatively, at 10 h after release from the second block, 10 μM MG132 with or without 25 μg/ml cycloheximide was added to the cells. […] Live cell imaging was set up as described above.
HeLa H2B-GFP cells were plated in a 24-well plate in DMEM+10% FBS at 20% confluence one day prior to experiment and synchronized by double thymidine block as described above. Mad2 siRNA transfection was performed as described above. At 10 h after release from the second block, 10 μM MG132 with or without 25 μg/ml cycloheximide was added to the cells. Live cell imaging was set up as described above. Manual analysis was focused only on cells that entered mitosis after MG132 addition.
Live cell imaging experiments. […] Nocodazole, taxol, proTAME, cyclinal and hesperadin were added to cells at 8 h after release. MG132 was added to cells at 10 h after release to allow mitotic entry.

HeLa cells = experiment: Endogenous APC substrate levels by immunoblot in synchronized HeLa cells; format: cell-based, human; conditions: 12 μM
Description: FIG. 1E is a series of photographs of gel electrophoresis analysis showing that proTAME stabilizes endogenous APC substrates. HeLa cells were synchronized by double thymidine procedure and released into compounds (12 μM). Protein levels were measured by immunoblot.

[1] = Example 3, Mad2 knockdown, 12 μM proTAME, 300 nM nocodazole
[2] = Example 3, without Mad2 knockdown, 12 μM proTAME, 300 nM nocodazole
[3] = Fig 6A, MAD2 siRNA, 12 μM proTAME, 300 nM nocodazole
[4] = Fig 6A, control siRNA, 12 μM proTAME, 300 nM nocodazole
[5] = Fig 6C, compounds 8 h after release, 12 μM proTAME, 300 nM nocodazole, 150 nM taxol, 100 nM hesperadin
[6] = Fig 8A, 12 μM proTAME, 300 nM nocodazole or 150 nM taxol, ± 25 μg/ml cycloheximide 4 h later
[7] = double-thymidine synchronized cells, Mad2 knockdown
[8] = double-thymidine synchronized cells, without Mad2 knockdown
[9] = Fig 5A, synchronized HeLa cells, 780 nM
[10] = Fig 5A, synchronized HeLa cells, 3 μM
[11] = Fig 5A, synchronized HeLa cells, 12 μM
[12] = Fig 5B, control siRNA, low proTAME concentration (4 μM)
[13] = Fig 5B, partial Cdc20 knockdown (Cdc20 siRNA), proTAME 4 μM
[14] = Fig S5G, after washout from nocodazole-induced arrest, release in proTAME 12 μM ± hesperadin 100 nM

Structure (SMILES): COC(=O)Nc1nc2ccc(C(=O)c3cccs3)cc2[nH]1 [Nocodazole, reference compound]
- Prolongation of mitosis (HeLa H2B-GFP cells; 10 nM nocodazole): 20 min
- Extension of mitotic duration (HeLa H2B-GFP cells; 10 nM, SAC-proficient cells): 20 min
- Response of arrested cells to roscovitine (HeLa H2B-GFP cells): induced instantaneous mitotic exit
- Median mitotic duration (HeLa H2B-GFP cells; [1]): 30 min
- Median mitotic duration (HeLa H2B-GFP cells; [2]): 1230 min
- Average mitotic duration (HeLa H2B-GFP cells; [3]): 98.2 min
- Median mitotic duration (HeLa H2B-GFP cells; [3]): 36 min
- Average mitotic duration (HeLa H2B-GFP cells; [4]): 1680.1 min
- Median mitotic duration (HeLa H2B-GFP cells; [4]): 1812 min
- Average mitotic duration (HeLa H2B-GFP cells; [5]): 1851.8 min
- Median mitotic duration (HeLa H2B-GFP cells; [5]): 2094 min
- Average mitotic duration (HeLa H2B-GFP cells; [6]): 1777.0 min
- Median mitotic duration (HeLa H2B-GFP cells; [6]): 2160 min
- Duration of mitotic arrest (HeLa H2B-GFP cells; [7]): 0.6 h
- Duration of mitotic arrest (HeLa H2B-GFP cells; [8]): 30 h

Structure (SMILES): COC(=O)[C@H](CCCN/C(=N\C(=O)OCOC(=O)Cc1ccccc1)NC(=O)OCOC(=O)Cc1ccccc1)NS(=O)(=O)c1ccc(C)cc1 [proTAME]
- Average mitotic duration (HeLa H2B-GFP cells): 1512.4 min
- Median mitotic duration (HeLa H2B-GFP cells): 1488 min
- Mitotic duration (HeLa H2B-GFP cells; 3 μM): 5 h
- Duration of mitotic arrest (HeLa H2B-GFP cells; 12 μM proTAME): over 28 h
- Extension of mitotic duration (HeLa H2B-GFP cells; 12 μM, SAC inactivated by Mad2 depletion): 72 min
- Extension of mitotic duration (HeLa H2B-GFP cells; 12 μM, intact SAC): 1380 min
- Response of arrested cells to roscovitine (HeLa H2B-GFP cells): induces rapid mitotic exit
- Mitotic duration (HeLa H2B-GFP cells; Cdc20 levels reduced by 50% by siRNA, 4 μM): 19.4 h
- Duration of mitotic arrest (HeLa H2B-GFP cells; Example 2, 12 μM proTAME, DIC imaging): over 10 hours
- Duration of metaphase arrest (HeLa H2B-GFP cells; Example 2, 12 (μM) proTAME, fluorescence imaging): more than 8 hours
- Mitotic duration (HeLa H2B-GFP cells; Example 2, HeLa H2B-GFP fluorescence imaging, 3 μM proTAME, proAAME control): 2 h
- Median mitotic duration (HeLa H2B-GFP cells; [1]): 120 min
- Median mitotic duration (HeLa H2B-GFP cells; [2]): 420 min
- Average mitotic duration (HeLa H2B-GFP cells; [9]): 165.4 min
- Median mitotic duration (HeLa H2B-GFP cells; [9]): 156 min
- Average mitotic duration (HeLa H2B-GFP cells; [10]): 444.6 min
- Median mitotic duration (HeLa H2B-GFP cells; [10]): 348 min
- Average mitotic duration (HeLa H2B-GFP cells; [11]): 1640.5 min
- Median mitotic duration (HeLa H2B-GFP cells; [11]): 1680 min
- Average mitotic duration (HeLa H2B-GFP cells; [12]): 496.5 min
- Median mitotic duration (HeLa H2B-GFP cells; [12]): 288 min
- Average mitotic duration (HeLa H2B-GFP cells; [13]): 1235.3 min
- Median mitotic duration (HeLa H2B-GFP cells; [13]): 1170 min
- Average mitotic duration (HeLa H2B-GFP cells; [3]): 121.7 min
- Median mitotic duration (HeLa H2B-GFP cells; [3]): 84 min
- Average mitotic duration (HeLa H2B-GFP cells; [5]): 1329.3 min
- Median mitotic duration (HeLa H2B-GFP cells; [5]): 1272 min
- Average mitotic duration (HeLa H2B-GFP cells; [6]): 1052.0 min
- Median mitotic duration (HeLa H2B-GFP cells; [6]): 972 min
- Average mitotic duration (HeLa H2B-GFP cells; [14]): 1516.4 min
- Median mitotic duration (HeLa H2B-GFP cells; [14]): 1410 min
- Effect on mitotic exit (HeLa H2B-GFP cells; Mad2-knockdown cells, proTAME 12 μM, cyclinal 100 μM): only transiently delayed mitotic exit
- Median mitotic duration (HeLa H2B-GFP cells; Mad2 knockdown cells (12 min without proTAME)): 84 min
- Mitotic duration (HeLa H2B-GFP cells; control-transfected cells, 4 μM): 4.8 h
- Duration of mitotic arrest (HeLa H2B-GFP cells; [7]): 1.4 h
- Duration of mitotic arrest (HeLa H2B-GFP cells; [8]): 24.6 h
- Duration of mitotic arrest (HeLa H2B-GFP cells; in the absence of Mad2): approximately 2 hours
- Effect on mitotic exit (HeLa H2B-GFP cells; in the presence of hesperadin): only transiently delayed mitotic exit
- Mitotic phenotype (HeLa H2B-GFP cells; 780 nM or 3 μM): remained in metaphase for up to several hours, but then proceeded through a normal anaphase
- Mitotic phenotype (HeLa H2B-GFP cells; 12 μM): arrested in metaphase and subsequently died
- Median mitotic arrest (HeLa H2B-GFP cells; synchronized, drugs 10 hrs after release, proTAME 1 μM, MG132 0.5 μM): 216 min
- Median mitotic delay/arrest (HeLa H2B-GFP cells; synchronized, drugs 10 hrs after release, proTAME 3 μM, low-dose MG132): 438 min
- Median mitotic duration (HeLa H2B-GFP cells; unsynchronized HeLa H2B-GFP, taxol 10 nM, proTAME 3 μM, control 60 min): 132 min
- Stabilization of endogenous cyclin B and securin (HeLa cells): dramatically stabilized
